The results in this text go back to publication PMC4854315, “Discovery of a novel allosteric inhibitor-binding site in ERK5: comparison with the canonical kinase hinge ATP-binding site” (Acta Crystallographica. Section D, Structural Biology, 2016).

What all share (experiment): Z'-LYTE kinase panel
Type in all cases: biochemical

The target of one assay is T1, NEK9 (Homo sapiens, UniProt Q8TD19).
T1 construct: purchased ThermoFisher (SelectScreen, Z'-LYTE)
T1 sequence (Q8TD19 1-979): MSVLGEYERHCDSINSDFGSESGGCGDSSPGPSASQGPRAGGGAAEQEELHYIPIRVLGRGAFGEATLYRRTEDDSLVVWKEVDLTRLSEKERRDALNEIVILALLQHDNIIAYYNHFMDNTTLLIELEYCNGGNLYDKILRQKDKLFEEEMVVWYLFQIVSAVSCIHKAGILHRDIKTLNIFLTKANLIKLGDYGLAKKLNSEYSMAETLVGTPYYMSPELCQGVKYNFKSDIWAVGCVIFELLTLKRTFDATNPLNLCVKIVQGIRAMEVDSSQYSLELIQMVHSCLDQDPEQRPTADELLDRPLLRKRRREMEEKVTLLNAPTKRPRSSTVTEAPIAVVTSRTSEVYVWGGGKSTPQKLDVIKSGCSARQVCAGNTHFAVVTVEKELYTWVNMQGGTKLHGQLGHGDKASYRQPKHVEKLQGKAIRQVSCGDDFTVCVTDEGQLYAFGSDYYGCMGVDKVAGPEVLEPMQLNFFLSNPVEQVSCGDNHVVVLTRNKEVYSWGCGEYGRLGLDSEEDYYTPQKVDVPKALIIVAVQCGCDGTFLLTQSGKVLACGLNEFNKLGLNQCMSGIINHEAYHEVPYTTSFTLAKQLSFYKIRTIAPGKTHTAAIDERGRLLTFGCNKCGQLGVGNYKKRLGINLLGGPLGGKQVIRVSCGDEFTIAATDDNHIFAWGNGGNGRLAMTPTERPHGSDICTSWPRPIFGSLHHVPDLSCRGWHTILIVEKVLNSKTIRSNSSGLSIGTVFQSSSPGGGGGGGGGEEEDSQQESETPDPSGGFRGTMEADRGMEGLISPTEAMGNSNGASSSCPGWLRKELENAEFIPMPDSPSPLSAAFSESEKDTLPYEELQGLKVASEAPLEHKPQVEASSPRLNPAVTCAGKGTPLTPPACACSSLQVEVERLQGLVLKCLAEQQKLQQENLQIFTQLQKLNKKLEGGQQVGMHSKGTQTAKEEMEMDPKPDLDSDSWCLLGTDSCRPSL
Put shortly: (§1)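 Each compound was added at 10 µM, kinase activity was then measured via the standard Z′-LYTE assay, and percentage inhibition was calculated; 225 kinases were covered.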

A further assay concerns the target T2, ITK (Homo sapiens, UniProt Q08881).
T2 construct: purchased ThermoFisher (SelectScreen, Z'-LYTE)
T2 sequence (Q08881 1-620): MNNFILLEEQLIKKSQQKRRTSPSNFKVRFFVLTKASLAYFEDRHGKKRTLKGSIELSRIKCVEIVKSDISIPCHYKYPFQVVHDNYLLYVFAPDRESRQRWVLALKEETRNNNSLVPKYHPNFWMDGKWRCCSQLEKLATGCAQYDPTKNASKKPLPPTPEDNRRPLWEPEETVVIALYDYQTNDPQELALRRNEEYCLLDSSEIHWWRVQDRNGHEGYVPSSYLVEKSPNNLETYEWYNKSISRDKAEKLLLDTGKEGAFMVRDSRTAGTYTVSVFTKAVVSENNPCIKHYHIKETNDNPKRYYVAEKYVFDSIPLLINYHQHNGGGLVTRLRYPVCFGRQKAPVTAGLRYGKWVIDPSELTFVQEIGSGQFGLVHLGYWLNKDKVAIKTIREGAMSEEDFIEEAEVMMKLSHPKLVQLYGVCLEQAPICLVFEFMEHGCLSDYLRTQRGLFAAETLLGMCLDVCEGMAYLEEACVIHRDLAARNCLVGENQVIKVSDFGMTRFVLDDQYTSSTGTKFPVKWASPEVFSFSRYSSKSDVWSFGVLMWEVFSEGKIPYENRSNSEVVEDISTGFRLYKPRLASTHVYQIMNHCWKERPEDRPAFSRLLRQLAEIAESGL
Put shortly: as §1

For the next assay, the target named is T3, TBK1 (Homo sapiens, UniProt Q9UHD2).
T3 construct: purchased ThermoFisher (SelectScreen, Z'-LYTE)
T3 sequence (Q9UHD2 1-729): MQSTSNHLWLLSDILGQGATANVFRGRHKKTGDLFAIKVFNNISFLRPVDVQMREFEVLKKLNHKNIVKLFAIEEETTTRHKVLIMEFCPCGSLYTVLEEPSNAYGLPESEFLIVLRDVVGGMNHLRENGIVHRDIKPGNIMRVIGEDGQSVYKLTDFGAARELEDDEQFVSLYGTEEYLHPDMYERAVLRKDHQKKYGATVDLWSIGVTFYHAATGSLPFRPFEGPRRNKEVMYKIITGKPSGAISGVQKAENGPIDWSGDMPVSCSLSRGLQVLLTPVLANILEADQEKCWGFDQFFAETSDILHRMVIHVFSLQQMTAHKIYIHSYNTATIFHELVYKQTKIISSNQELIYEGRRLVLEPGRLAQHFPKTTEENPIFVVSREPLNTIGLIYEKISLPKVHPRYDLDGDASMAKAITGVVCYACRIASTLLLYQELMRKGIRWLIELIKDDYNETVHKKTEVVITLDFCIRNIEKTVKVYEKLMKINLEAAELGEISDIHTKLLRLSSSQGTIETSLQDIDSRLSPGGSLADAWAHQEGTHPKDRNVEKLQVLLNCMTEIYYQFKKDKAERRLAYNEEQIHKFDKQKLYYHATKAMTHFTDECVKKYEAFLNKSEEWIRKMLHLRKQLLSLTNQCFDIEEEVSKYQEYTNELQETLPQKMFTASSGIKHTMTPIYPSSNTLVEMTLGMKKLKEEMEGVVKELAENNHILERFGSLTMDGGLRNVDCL
Put shortly: as §1

The next assay deals with T4, PAK1 (Homo sapiens, UniProt Q13153).
T4 construct: purchased ThermoFisher (SelectScreen, Z'-LYTE)
The essentials:
as §1

The target in another assay is T5, INSRR (IRR) (Homo sapiens, UniProt P14616).
T5 construct: purchased ThermoFisher (SelectScreen, Z'-LYTE)
The essentials: as §1

For another assay, the target named is T6, AKT1 (PKB alpha) (Homo sapiens, UniProt P31749).
T6 construct: purchased ThermoFisher (SelectScreen, Z'-LYTE)
Put shortly:
as §1

The target of another assay is T7, STK22D (TSSK1) (Homo sapiens, UniProt Q9BXA7).
T7 construct: purchased ThermoFisher (SelectScreen, Z'-LYTE)
T7 sequence (Q9BXA7 1-367): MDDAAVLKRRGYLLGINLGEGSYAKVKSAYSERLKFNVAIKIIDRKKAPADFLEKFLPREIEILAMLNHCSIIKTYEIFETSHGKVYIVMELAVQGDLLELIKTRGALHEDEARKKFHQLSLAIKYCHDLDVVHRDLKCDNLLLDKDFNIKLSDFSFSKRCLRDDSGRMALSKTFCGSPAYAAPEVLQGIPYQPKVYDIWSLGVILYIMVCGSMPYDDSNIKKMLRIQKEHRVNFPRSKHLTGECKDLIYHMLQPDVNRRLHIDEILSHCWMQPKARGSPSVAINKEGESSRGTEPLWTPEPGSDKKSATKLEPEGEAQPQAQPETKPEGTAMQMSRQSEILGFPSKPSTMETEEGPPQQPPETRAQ
The essentials: as §1

T5 sequence (P14616 27-1297): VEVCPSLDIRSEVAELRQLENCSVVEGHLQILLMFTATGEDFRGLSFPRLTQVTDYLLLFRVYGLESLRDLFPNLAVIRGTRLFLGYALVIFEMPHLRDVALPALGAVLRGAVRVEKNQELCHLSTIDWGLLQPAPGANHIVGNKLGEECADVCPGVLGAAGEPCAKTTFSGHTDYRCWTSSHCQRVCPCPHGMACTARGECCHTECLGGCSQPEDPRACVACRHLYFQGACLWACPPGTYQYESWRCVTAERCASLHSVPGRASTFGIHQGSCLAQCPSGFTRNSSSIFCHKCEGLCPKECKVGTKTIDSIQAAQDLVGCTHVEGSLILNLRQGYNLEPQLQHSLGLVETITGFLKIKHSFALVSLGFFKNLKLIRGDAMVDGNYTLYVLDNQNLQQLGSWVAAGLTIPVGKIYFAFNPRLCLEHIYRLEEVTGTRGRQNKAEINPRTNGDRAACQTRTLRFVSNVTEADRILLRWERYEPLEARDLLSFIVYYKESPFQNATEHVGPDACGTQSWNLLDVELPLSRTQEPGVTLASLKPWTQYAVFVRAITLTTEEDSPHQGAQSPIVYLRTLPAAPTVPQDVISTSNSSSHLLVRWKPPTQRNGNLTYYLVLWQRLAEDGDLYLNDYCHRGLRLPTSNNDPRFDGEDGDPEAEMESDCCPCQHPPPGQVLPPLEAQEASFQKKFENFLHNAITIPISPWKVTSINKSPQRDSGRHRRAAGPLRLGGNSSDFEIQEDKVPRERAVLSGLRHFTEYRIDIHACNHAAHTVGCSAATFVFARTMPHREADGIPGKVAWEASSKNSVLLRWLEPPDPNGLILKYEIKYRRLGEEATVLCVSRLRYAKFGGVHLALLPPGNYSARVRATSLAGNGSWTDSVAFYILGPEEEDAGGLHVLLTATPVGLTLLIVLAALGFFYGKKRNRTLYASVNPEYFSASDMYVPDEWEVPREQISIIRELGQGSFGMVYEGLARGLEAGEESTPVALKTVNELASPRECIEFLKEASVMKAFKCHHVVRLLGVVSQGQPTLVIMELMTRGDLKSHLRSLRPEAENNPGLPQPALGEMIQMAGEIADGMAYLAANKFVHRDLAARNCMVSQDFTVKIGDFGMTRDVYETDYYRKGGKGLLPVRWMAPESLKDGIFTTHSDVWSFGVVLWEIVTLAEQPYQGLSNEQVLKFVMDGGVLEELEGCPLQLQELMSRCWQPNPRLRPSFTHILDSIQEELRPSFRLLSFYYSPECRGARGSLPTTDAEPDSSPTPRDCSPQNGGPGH
T4 sequence (Q13153 whole entry): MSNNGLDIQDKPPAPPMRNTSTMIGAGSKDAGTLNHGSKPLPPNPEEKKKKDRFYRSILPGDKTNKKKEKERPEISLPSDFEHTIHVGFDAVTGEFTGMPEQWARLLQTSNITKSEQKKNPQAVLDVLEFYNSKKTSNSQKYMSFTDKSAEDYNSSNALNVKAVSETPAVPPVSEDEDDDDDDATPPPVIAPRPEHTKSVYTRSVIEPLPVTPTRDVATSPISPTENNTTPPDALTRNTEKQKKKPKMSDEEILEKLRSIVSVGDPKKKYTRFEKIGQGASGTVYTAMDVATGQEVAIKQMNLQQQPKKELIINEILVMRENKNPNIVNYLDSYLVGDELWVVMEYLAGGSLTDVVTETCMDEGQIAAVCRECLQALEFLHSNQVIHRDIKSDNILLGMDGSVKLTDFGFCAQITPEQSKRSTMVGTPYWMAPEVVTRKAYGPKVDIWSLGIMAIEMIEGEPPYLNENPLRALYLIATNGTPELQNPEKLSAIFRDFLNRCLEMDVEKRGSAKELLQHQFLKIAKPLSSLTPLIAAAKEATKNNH
T6 sequence (P31749 whole entry): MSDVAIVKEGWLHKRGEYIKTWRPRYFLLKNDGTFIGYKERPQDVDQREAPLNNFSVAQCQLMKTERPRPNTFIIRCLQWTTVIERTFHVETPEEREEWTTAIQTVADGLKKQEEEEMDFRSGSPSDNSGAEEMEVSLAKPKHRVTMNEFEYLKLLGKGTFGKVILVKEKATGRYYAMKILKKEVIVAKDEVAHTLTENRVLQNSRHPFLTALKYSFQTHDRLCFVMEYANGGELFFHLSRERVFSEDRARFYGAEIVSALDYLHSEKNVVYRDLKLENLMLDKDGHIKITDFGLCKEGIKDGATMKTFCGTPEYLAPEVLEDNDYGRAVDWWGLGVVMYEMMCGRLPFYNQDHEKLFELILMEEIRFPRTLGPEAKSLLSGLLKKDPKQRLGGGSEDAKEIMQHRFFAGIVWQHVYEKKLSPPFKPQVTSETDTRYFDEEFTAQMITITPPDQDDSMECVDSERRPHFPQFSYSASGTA

In the case of “XMD8-92 [Compound 2, reference compound]”, the “NEK9 % Inhibition” value on NEK9 (10 µM compound, ATP Km app) was -0.532%. Moreover, on ITK (10 µM compound, ATP Km app), the “ITK % Inhibition” value worked out at 18%. Besides, on TBK1 (10 µM compound, ATP Km app), the “TBK1 % Inhibition” value amounted to 43%. In addition, the “PAK1 % Inhibition” value on PAK1 (10 µM compound, ATP Km app) was found to be 8%. Moreover, the “INSRR (IRR) % Inhibition” value at INSRR (IRR) (10 µM compound, ATP Km app) came to 21%. Moreover, the “AKT1 (PKB alpha) % Inhibition” value at AKT1 (PKB alpha) (10 µM compound, ATP Km app) is reported as 41%. At STK22D (TSSK1) (10 µM compound, ATP Km app), the “STK22D (TSSK1) % Inhibition” value is reported as 11%.
For `Cc1cc(Nc2nc(N)nn2C(=O)NC(C)C)ccc1Cl` [Compound 5], the inhibition at 10 µM was 1.46% at NEK9; 10% on ITK; 27% at TBK1; -12% at PAK1; 5.63% against INSRR (IRR); 0.31% against AKT1 (PKB alpha). Further, the inhibition at 10 µM against STK22D (TSSK1) came out at 21%.
In the case of `Cc1ncc(-c2nc(Nc3ccc(C(=O)NCCN4CCCCC4)cc3)ncc2F)n1C(C)C` [Compound 3], the inhibition at 10 µM at NEK9 was 18%; against ITK, 88%; at TBK1, 86%; at PAK1 it was 51%; on INSRR (IRR), 105%; against AKT1 (PKB alpha), 19%. Also, the inhibition at 10 µM on STK22D (TSSK1) is 81%.
